System: human cardiac progenitors
Test: Induction of AVN phenotype in hPSC-derived cardiac progenitors, flow cytometry for NKX2-5+TBX3+ myocytes at day 20
Assay type: cell-based
Protocol: First, hPSCs were incubated in media containing BMP and Rho-associated protein kinase (ROCK) inhibitor on an orbital shaker to generate embryoid bodies (differentiation protocol day: 0). Then, cardiogenic mesoderm was induced using media containing 1-100 ng/mL BMP4, 1-100 ng/ml Activin A, 1-20 ng/mL bFGF, and 1-10 μM CHIR-99021 (differentiation protocol day: 1). […] The cardiogenic mesoderm can be analyzed at day 3/4 of differentiation for the expression of PDGFRa, RALDH2 and CD235a, and should be PDGFRa+RALDH2− and CD235a^low (max 50% positive).
Next, cardiac progenitors were induced using media that contained 0.5-10 μM IWP2 and 1-20 ng/mL VEGF (differentiation protocol day: 3). At this stage, the cardiac progenitors may be a mixed population of early stage (NKX2-5^−) and late stage (NKX2-5^+) cardiac progenitors which may be contractile or not. […] Culture was continued in media that contained 5 ng/mL VEGF until day 12 of the differentiation protocol. The culture was maintained until day 20 of the differentiation protocol before analysis. […] FIGS. 3B, 4B, 5A and 5B present the percentage of NKX2-5^+ TBX3^+ myocytes of total cells present in the culture.
A NKX2-5:GFP+TBX3:tdTomato+ transgenic double reporter hPSC line was cultured using the protocol described in Example 1. AVNLPCs were identified and isolated using Fluorescence-activated cell sorting (FACS), based on their expression of NKX2-5 and TBX3 and the associated expression of the fluorescent reporter (FIG. 2).

Structure (SMILES): Cc1c[nH]c(-c2cnc(NCCNc3ccc(C#N)cn3)nc2-c2ccc(Cl)cc2Cl)n1 [CHIR-99021]
- Change in NKX2-5+TBX3+ AVNLPCs of total cell population at day 20 (9 uM CHIR from day 8-11, day 11-15 or day 15-18, n=5 (FIG. 3B)): significant increase
- CHIR-99021 concentration at which relatively more NKX2-5+TBX3+ myocytes were induced (3-15 μM used): 12 to 15 µM
- CHIR concentration giving highest percentage of NKX2-5+TBX3+ AVNLPCs (treatment day 8-11, day 20 analysis, n=5 (FIG. 4B)): 12 to 15 µM
